Experimental data taken from paper PMC10382584, “Macrocyclization of linear molecules by deep learning to facilitate macrocyclic drug candidates discovery” (Nature Communications, 2023).

Legend:
Experiment in all cases: biochemical
Parameters in all cases: DiscoveRx KINOMEscan competition binding, percent of DMSO control signal at 100 nM
Conditions in all cases: read-out: Fig. 4a / Percent Control / Compound 1; percent of DMSO control, competition binding
[1] = target: T1, ABL1(T315I)-phosphorylated (Homo sapiens, UniProt P00519, T315I)
T1 construct: phosphorylated

MAP3K3 = MAP3K3 (Homo sapiens, UniProt Q99759)
IRAK3 = IRAK3 (Homo sapiens, UniProt Q9Y616)
CSNK2A2 = CSNK2A2 (Homo sapiens, UniProt P19784)
MAPKAPK2 = MAPKAPK2 (Homo sapiens, UniProt P49137)
STK36 = STK36 (Homo sapiens, UniProt Q9NRP7)
ACVR2B = ACVR2B (Homo sapiens, UniProt Q13705)
[2] = target: T2, RSK2(Kin.Dom.1-N-terminal) (Homo sapiens, UniProt P51812)
T2 construct: gene RPS6KA3; Kin.Dom.1-N-terminal

[3] = target: T3, ABL1(Q252H)-nonphosphorylated (Homo sapiens, UniProt P00519, Q252H)
T3 construct: nonphosphorylated

[4] = target: T4, JAK2(JH1domain-catalytic) (Homo sapiens, UniProt O60674)
T4 construct: JH1domain-catalytic

PLK4 = PLK4 (Homo sapiens, UniProt O00444)
TRPM6 = TRPM6 (Homo sapiens, UniProt Q9BX84)
BRAF = BRAF (Homo sapiens, UniProt P15056)
PDGFRA = PDGFRA (Homo sapiens, UniProt P16234)
PRKD3 = PRKD3 (Homo sapiens, UniProt O94806)
LCK = LCK (Homo sapiens, UniProt P06239)
MAP3K4 = MAP3K4 (Homo sapiens, UniProt Q9Y6R4)
NEK6 = NEK6 (Homo sapiens, UniProt Q9HC98)
PLK3 = PLK3 (Homo sapiens, UniProt Q9H4B4)
SgK110 = target: T5, SgK110 (Homo sapiens, UniProt P0C264)
T5 construct: gene SBK3

[5] = target: T6, ABL1(F317L)-phosphorylated (Homo sapiens, UniProt P00519, F317L)
T6 construct: phosphorylated

FGFR3 = FGFR3 (Homo sapiens, UniProt P22607)
NDR2 = target: T7, NDR2 (Homo sapiens, UniProt Q9Y2H1)
T7 construct: gene STK38L

STK35 = STK35 (Homo sapiens, UniProt Q8TDR2)
CDKL5 = CDKL5 (Homo sapiens, UniProt O76039)
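Note: KINOMEscan kinase panel binding assay, signal normalized between DMSO as 100% and a positive control compound as 0%.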

Sequence of TRPM6 (Q9BX84 whole entry): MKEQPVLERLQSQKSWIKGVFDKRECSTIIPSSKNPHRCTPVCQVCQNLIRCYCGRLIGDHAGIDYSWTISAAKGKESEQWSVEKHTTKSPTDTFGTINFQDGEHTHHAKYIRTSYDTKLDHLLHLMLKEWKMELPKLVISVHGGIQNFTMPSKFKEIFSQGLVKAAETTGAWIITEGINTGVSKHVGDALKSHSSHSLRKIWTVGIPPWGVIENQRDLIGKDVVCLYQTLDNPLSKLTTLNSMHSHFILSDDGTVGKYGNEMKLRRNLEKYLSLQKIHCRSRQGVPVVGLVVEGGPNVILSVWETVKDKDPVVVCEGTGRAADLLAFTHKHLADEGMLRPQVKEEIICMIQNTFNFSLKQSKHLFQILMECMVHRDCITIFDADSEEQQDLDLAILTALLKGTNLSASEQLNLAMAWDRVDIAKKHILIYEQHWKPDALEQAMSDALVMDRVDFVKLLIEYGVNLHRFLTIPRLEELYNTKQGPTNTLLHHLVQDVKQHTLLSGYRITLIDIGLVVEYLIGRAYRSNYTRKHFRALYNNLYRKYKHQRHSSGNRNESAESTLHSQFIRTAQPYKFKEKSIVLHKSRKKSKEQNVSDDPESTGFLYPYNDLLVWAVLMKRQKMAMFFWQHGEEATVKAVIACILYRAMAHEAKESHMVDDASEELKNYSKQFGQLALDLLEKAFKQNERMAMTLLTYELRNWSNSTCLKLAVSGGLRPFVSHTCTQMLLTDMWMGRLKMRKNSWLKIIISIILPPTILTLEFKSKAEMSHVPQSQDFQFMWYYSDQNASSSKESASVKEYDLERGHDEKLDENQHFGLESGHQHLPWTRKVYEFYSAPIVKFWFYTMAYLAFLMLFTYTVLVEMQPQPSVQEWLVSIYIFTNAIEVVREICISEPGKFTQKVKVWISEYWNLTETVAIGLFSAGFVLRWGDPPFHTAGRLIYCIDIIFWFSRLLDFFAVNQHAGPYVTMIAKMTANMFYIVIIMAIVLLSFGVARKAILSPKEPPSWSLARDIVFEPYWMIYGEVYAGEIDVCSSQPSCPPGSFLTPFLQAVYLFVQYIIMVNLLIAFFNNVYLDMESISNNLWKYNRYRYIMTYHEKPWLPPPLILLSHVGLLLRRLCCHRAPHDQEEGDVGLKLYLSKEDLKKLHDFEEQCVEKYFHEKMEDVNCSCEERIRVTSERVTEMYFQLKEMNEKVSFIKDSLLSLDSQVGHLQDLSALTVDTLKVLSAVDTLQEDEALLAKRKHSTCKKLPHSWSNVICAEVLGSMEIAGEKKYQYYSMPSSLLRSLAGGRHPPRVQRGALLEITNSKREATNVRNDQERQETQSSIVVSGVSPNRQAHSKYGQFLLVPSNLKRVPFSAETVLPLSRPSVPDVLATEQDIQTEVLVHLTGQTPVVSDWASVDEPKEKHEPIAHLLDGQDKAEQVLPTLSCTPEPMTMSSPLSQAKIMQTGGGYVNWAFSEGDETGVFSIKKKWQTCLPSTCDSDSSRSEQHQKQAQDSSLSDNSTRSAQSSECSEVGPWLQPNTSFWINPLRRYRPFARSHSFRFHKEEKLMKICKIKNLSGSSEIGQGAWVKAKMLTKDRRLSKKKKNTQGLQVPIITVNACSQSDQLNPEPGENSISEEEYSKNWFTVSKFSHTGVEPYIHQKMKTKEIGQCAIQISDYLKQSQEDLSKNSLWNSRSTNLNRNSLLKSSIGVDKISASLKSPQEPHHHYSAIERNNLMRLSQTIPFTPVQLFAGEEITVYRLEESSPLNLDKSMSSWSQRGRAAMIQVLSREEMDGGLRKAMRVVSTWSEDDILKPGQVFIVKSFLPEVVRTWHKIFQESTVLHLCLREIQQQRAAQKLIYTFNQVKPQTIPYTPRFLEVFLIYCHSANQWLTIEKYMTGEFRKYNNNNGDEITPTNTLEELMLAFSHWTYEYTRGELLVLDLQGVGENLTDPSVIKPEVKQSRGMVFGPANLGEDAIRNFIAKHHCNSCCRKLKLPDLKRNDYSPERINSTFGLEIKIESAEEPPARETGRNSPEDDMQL
Sequence of PLK3 (Q9H4B4 whole entry): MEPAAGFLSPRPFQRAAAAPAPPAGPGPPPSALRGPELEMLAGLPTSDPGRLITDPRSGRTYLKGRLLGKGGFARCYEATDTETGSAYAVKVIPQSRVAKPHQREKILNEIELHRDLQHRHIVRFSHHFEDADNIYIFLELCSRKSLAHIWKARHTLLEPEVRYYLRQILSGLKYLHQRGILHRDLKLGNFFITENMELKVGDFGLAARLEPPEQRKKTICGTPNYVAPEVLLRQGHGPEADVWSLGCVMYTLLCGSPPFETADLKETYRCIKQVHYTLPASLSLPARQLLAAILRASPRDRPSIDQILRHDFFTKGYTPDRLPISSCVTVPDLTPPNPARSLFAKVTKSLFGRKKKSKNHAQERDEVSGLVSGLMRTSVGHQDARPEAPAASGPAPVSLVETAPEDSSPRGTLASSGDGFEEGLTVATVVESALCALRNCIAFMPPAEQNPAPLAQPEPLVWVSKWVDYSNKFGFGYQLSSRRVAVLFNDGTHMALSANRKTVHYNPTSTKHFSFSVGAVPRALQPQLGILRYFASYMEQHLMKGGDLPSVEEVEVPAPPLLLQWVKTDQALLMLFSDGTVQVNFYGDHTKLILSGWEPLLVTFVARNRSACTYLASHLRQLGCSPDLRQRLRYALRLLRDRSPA
Sequence of MAPKAPK2 (P49137 whole entry): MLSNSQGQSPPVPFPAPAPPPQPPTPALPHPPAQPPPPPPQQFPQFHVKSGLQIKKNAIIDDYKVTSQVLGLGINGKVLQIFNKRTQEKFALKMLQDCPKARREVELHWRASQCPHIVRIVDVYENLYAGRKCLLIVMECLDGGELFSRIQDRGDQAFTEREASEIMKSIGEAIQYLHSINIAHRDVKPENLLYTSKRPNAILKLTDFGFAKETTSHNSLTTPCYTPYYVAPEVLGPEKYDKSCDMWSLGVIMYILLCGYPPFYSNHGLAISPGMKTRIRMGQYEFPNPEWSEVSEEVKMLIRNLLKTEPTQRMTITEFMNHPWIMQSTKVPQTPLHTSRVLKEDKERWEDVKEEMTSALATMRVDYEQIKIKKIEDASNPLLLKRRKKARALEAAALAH
Sequence of PDGFRA (P16234 whole entry): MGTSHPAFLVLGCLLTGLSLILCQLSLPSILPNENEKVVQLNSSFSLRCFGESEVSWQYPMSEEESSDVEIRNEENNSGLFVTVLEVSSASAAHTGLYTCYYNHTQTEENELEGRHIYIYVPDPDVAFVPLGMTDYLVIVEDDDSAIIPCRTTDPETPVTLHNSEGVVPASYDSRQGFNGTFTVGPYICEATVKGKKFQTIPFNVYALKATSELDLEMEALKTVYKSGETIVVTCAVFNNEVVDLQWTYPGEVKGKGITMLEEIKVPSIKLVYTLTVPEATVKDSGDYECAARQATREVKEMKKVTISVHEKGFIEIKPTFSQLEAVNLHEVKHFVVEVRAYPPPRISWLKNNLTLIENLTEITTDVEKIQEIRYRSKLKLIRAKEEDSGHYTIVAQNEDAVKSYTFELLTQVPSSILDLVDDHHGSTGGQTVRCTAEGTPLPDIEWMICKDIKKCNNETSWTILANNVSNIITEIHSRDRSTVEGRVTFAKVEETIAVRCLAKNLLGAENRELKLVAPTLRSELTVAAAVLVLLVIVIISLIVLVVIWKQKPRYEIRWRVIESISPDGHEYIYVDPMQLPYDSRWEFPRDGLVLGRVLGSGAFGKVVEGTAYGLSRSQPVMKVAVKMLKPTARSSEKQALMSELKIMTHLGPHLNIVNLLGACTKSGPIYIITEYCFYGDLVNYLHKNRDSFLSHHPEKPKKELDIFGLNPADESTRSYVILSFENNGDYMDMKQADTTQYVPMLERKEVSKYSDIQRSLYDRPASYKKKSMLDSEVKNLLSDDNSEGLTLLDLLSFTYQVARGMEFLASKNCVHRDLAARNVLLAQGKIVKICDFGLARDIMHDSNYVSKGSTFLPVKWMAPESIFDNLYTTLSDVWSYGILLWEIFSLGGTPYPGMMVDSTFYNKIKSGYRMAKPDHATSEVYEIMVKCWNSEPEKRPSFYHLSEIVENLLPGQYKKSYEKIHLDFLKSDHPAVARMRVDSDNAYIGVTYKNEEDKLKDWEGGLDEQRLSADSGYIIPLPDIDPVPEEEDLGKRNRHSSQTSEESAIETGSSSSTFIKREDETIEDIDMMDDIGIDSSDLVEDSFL
Sequence of STK35 (Q8TDR2 whole entry): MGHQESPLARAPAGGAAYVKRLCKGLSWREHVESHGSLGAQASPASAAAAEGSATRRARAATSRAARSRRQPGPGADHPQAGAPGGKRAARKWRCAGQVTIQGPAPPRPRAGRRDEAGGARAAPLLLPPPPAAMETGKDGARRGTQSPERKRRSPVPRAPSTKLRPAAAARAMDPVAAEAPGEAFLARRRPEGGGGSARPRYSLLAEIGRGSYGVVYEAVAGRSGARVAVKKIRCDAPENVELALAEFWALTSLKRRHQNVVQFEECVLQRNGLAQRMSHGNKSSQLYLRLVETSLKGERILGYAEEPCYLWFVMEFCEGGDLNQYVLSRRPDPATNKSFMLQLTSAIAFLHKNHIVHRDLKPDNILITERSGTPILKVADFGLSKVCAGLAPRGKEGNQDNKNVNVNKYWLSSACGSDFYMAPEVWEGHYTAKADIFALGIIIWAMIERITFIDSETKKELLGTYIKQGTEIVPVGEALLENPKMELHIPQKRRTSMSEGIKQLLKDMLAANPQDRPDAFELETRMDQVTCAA
Sequence of NEK6 (Q9HC98 whole entry): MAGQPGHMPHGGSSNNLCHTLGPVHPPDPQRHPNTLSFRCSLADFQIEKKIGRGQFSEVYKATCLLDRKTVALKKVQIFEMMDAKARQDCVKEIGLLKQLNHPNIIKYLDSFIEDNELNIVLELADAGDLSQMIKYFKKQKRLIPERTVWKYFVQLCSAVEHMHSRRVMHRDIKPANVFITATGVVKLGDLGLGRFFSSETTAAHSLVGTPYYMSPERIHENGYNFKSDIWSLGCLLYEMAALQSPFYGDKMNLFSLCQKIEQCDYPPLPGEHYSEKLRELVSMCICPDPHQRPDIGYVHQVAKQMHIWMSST

## Cc1cnc2nc1Nc1cccc(c1)COCc1cc(ccc1OCCN1CCCC1)N2 [Compound 1]
[1]
  remaining binding at 0.1 µM: 49%
MAP3K3
  remaining binding at 0.1 µM: 74%
IRAK3
  remaining binding at 0.1 µM: 53%
CSNK2A2
  remaining binding at 0.1 µM: 62%
MAPKAPK2
  remaining binding at 0.1 µM: 100%
STK36
  remaining binding at 0.1 µM: 97%
ACVR2B
  remaining binding at 0.1 µM: 96%
[2]
  remaining binding at 0.1 µM: 56%
[3]
  remaining binding at 0.1 µM: 51%
[4]
  remaining binding at 0.1 µM: 0%
PLK4
  remaining binding at 0.1 µM: 96%
TRPM6
  remaining binding at 0.1 µM: 85%
BRAF
  remaining binding at 0.1 µM: 93%
PDGFRA
  remaining binding at 0.1 µM: 73%
PRKD3
  remaining binding at 0.1 µM: 100%
LCK
  remaining binding at 0.1 µM: 72%
MAP3K4
  remaining binding at 0.1 µM: 100%
NEK6
  remaining binding at 0.1 µM: 100%
PLK3
  remaining binding at 0.1 µM: 99%
SgK110
  remaining binding at 0.1 µM: 65%
[5]
  remaining binding at 0.1 µM: 70%
FGFR3
  remaining binding at 0.1 µM: 95%
NDR2
  remaining binding at 0.1 µM: 92%
STK35
  remaining binding at 0.1 µM: 92%
CDKL5
  remaining binding at 0.1 µM: 100%
